In article PMC10020666, “Oxidation modulates LINGO2-induced inactivation of large conductance, Ca^2+-activated potassium channels” (The Journal of Biological Chemistry, 2023):
Entries after “also recorded” stand apart in the source; their conditions may differ.

Columns and labels:
BK:LINGO2 channels [1] = experiment: Effect of oxidizing/reducing agents on BK:LINGO2 currents (inside-out patch, step to +160 mV); type: cell-based, rabbit BKα, human LINGO2; settings: 200 μM Ch-T, 100 nM Ca2+
Description: (§1) All excised patch experiments were performed at 37 °C in 140 mM symmetrical K^+ solutions which contained 140 mM KCl, 10 mM glucose, 10 mM Hepes, and either 1 mM ethylene glycol-bis(β-amino ether)-N,N,N′,N′-tetraacetic acid (EGTA (for free [Ca^2+] 100 nM to 300 nM) or 1 mM hydroxyethylethylenediaminetriacetic acid (HEDTA for free [Ca^2+] 1 μM to 10 μM) and the pH of all solutions was adjusted to 7.2 with KOH. These solutions were made with double-distilled, deionized, filtered water from a MilliQ water purification system. The pipette solution contained 100 nM free Ca^2+. We used “Chelator” (https://www.ru.nl/animal/research/chelator/) to calculate the total amount of Ca^2+ required, as per Schoenmakers et al., ([40]) and free Ca^2+ concentrations were checked with a Ca^2+ sensitive electrode.
(§2) During experiments, the dish containing HEK cells was superfused with Hanks solution, which contained (in mM) 129.8 Na^+, 5.8 K^+, 135 Cl^-, 4.17 HCO3^-, 0.34 HPO4^2-, 0.44 H2PO4^-, 1.8 Ca^2+, 0.9 Mg^2+, 0.4 SO4^2-, 10 glucose, 2.9 sucrose, and 10 Hepes, and its pH was adjusted to 7.4 with NaOH. In addition, the patch under study was continuously superfused by means of a close delivery system consisting of a pipette (tip diameter 200 μm) placed approximately 300 μm away from the cell. This could be switched, with a dead-space time of around 5 s, to a solution containing a drug.
(§3) Electrodes were pulled from Corning borosilicate glass (1.5 mm O.D. × 0.86 mm I.D.) using a Sutter P-97 pipette puller and fire polished using a Narashige MF 83 microforge. Pipettes had resistances of 2 to 5 MΩ when filled with recording solutions and series resistance was compensated by up to 80%. Standard single-channel patch clamp recording methods were used. Voltage clamp commands were delivered via an Axopatch 200B patch clamp amplifier (Axon Instruments) connected to a Digidata 1322A AD/DA converter (Axon Instruments) interfaced to computers running pClamp software (Axon Instruments). Data was acquired at 100 KHz and filtered at 2 KHz or 5 KHz. Patches were held at either −60 mV or −100 mV and depolarized in 20 mV increments to 200 mV. Residual capacitance and leakage currents were subtracted using either a P/4 protocol or offline by manual leak subtraction.
(§4) The human LINGO2 transcript used [NM_001354575.2] was untagged in a pcDNA 3.1 vector (VectorBuilder). The α subunit of the rabbit BK channel was isolated from rabbit urethral smooth muscle and cloned using the pcDNA TOPO DNA cloning kit (Life Technologies). The identifiesd transcript corresponded to the ZERO variant of mouse BKα and to variant 2 (NM_002247.3) of human BKα. We used 100 ng ml^−1 cDNA for BKα only transfections, whereas a 100:500 ng ml^−1 cDNA ratio was used for BKα:LINGO2 and BKα:LINGO1 cotransfections for inside-out patch recordings. GFP (150 ng ml^−1) was included in all transfections except those used for Figure 2, C and D. cDNA was transiently transfected into HEK cells using lipofectamine. Site-directed mutagenesis used the Phusion kit (Thermo Fisher Scientific) method ([41]) and all mutations were confirmed by sequencing.
HEK293 cells were cultured in Dulbecco's modified Eagle's medium + MEM media containing 10% fetal bovine serum and 1% Penicillin-Streptomycin antibiotics at 37 °C, and 95% humidifying incubator containing 5% CO2. Subculturing was done by 0.05% Trypsin-EDTA solution.
All data is presented as mean ± SD and was analyzed with Prism software (GraphPad). Individual data points are also shown in bar charts. Statistical differences were assessed using either paired or unpaired nonparametric tests (Wilcoxin signed-rank test, Mann–Whitney test), or the extra sum of squares F-test, as appropriate. Comparisons of three or more nonparametric data sets used Friedman’s test followed by Dunn’s test for multiple comparisons, whereas ANOVA was used for three or more parametric data sets. p < 0.05 was taken as significant.

BKα currents = experiment: Effect of Ch-T on BKα currents in absence of LINGO2 (inside-out patch); type: cell-based, rabbit
Description: as §1
During experiments, the dish containing HEK cells was superfused with Hanks solution, which contained (in mM) 129.8 Na^+, 5.8 K^+, 135 Cl^-, 4.17 HCO3^-, 0.34 HPO4^2-, 0.44 H2PO4^-, 1.8 Ca^2+, 0.9 Mg^2+, 0.4 SO4^2-, 10 glucose, 2.9 sucrose, and 10 Hepes, and its pH was adjusted to 7.4 with NaOH. […]
(§5) All data is presented as mean ± SD and was analyzed with Prism software (GraphPad). […] Statistical differences were assessed using either paired or unpaired nonparametric tests (Wilcoxin signed-rank test, Mann–Whitney test), or the extra sum of squares F-test, as appropriate. […]

BK:LINGO2 M605L mutant = experiment: Effect of Ch-T on BK:LINGO2 M605L currents (inside-out patch); type: cell-based, rabbit BKα, human LINGO2
Description: as §1, §2, §3
The human LINGO2 transcript used [NM_001354575.2] was untagged in a pcDNA 3.1 vector (VectorBuilder). The α subunit of the rabbit BK channel was isolated from rabbit urethral smooth muscle and cloned using the pcDNA TOPO DNA cloning kit (Life Technologies). […]
as §5

BK:LINGO2 M603L mutant = experiment: Effect of Ch-T on BK:LINGO2 M603L currents (inside-out patch); type: cell-based, rabbit BKα, human LINGO2
Description: as §1, §2
Electrodes were pulled from Corning borosilicate glass (1.5 mm O.D. × 0.86 mm I.D.) using a Sutter P-97 pipette puller and fire polished using a Narashige MF 83 microforge. Pipettes had resistances of 2 to 5 MΩ when filled with recording solutions and series resistance was compensated by up to 80%. Standard single-channel patch clamp recording methods were used. […]
as §5

BK:LINGO2 channels [2] = experiment: Effect of Ch-T on BK:LINGO2 currents at different voltages (GV curves); type: cell-based, rabbit BKα, human LINGO2
Description: as §1, §2, §3
as §4, with “sequencing. […]” for “sequencing.”
G was derived from peak currents according to Ohm’s law[1] […] Summary data was expressed as the […]. […] For BK constructs, data from each patch was normalized to the peak conductance measured in either 1 μM or 10 μM Ca^2+ to obtain Gmax, and curves were constrained to the Gmax value obtained in this. […]

BKα:LINGO2 = experiment: Effect of Ch-T on steady-state voltage-dependent inactivation (double pulse protocol); type: cell-based, rabbit BKα, human LINGO2; settings: 200 μM Chloramine-T, 2 min, 100 nM Ca2+, control inactivation V1/2 36±5 mV, n = 6
Description: All excised patch experiments were performed at 37 °C in 140 mM symmetrical K^+ solutions which contained 140 mM KCl, 10 mM glucose, 10 mM Hepes, and either 1 mM ethylene glycol-bis(β-amino ether)-N,N,N′,N′-tetraacetic acid (EGTA (for free [Ca^2+] 100 nM to 300 nM) or 1 mM hydroxyethylethylenediaminetriacetic acid (HEDTA for free [Ca^2+] 1 μM to 10 μM) and the pH of all solutions was adjusted to 7.2 with KOH. These solutions were made with double-distilled, deionized, filtered water from a MilliQ water purification system. The pipette solution contained 100 nM free Ca^2+. We used “Chelator” (https://www.ru.nl/animal/research/chelator/) to calculate the total amount of Ca^2+ required, as per Schoenmakers et al., ([40]) and free Ca^2+ concentrations were checked with a Ca^2+ sensitive electrode. […]
Inactivation curves were fitted with a similar Boltzmann function:[3] I/Imax=1/{1+exp[±(V1/2−Vc)/K]} where, I was the current recorded at the test step, Imax was the maximal current recorded, Vc was the conditioning potential (see RESULTS), and K was the slope factor.
as §5

Compound: Cc1ccc(S(=O)(=O)NCl)cc1 [Ch-T, Chloramine T]
- Effect on BK:LINGO2 inactivation (BK:LINGO2 channels [1]): caused rapid abolition of inactivation; also recorded: maintained for the duration of the recording, despite the removal of the oxidizing agent; also recorded: completely abolished inactivation and also increased peak current amplitude; also recorded: inactivation was clearly abolished
- Effect on BK:LINGO2 inactivation (BK:LINGO2 channels [1]; listed as chloramine-T): abolished inactivation
- Sustained current amplitude, % of peak current, after 60 s Ch-T (BK:LINGO2 channels [1]; 60 s, last 5 ms, control 11 ± 8%, n = 7, p < 0.05, mean ± SD): 59 ± 39%
- Sustained current amplitude, % of peak current, after 120 s Ch-T (BK:LINGO2 channels [1]; 120 s, last 5 ms, control 11 ± 8%, n = 7, p < 0.05, mean ± SD): 130 ± 19%
- Increase of peak current amplitude compared to control (BK:LINGO2 channels [1]; 120 s, p < 0.05, n = 7, mean ± SD): 35 ± 31%
- Increase of BKα current amplitude (BKα currents; 200 μM Ch-T, up to 210 s, +160 mV, 100 nM Ca2+, n = 4-5, p = 0.43 (not significant)): 21 ± 27%
- Effect on BKα current amplitude (BKα currents; Ch-T, 4-min application, n = 4 to 5, p = 0.43): failed to significantly increase the BKα current amplitude
- Ch-T effectiveness reduction compared to WT BK:LINGO2 currents (BK:LINGO2 M605L mutant; M605L vs WT, p < 0.001, Mann-Whitney test): ~50 % less effective
- Sustained current, % of peak current amplitude, after an additional 90 s Ch-T (BK:LINGO2 M605L mutant; M605L, 200 μM Ch-T, 60 s + additional 90 s, 100 nM Ca2+, +160 mV, control 6 ± 4%, p < 0.01): 47 ± 25%
- Sustained current, % of peak current amplitude, after 60 s Ch-T (BK:LINGO2 M605L mutant; M605L, 200 μM Ch-T, 60 s, 100 nM Ca2+, +160 mV, control 6 ± 4%, n = 10, p < 0.01): 15 ± 14%
- Sustained current, % of peak current amplitude, at end of 210 s application (BK:LINGO2 M605L mutant; M605L, 200 μM Ch-T, 210 s, 100 nM Ca2+, +160 mV): ~50%
- Sustained current after 60 s Ch-T (BK:LINGO2 M603L mutant; 200 μM Ch-T, 60 s, 100 nM Ca2+, +160 mV, control 10 ± 9%, n = 9, p < 0.05): 17 ± 9%
- Sustained current after 150 s Ch-T (BK:LINGO2 M603L mutant; 200 μM Ch-T, 150 s, 100 nM Ca2+, +160 mV, control 10 ± 9%, n = 9, p < 0.05): 20 ± 12%
- Sustained current during Ch-T (summary in figure legend) (BK:LINGO2 M603L mutant; Ch-T, 7 to 9 patches): ~20%
- Inactivation after Ch-T, family of voltages (BK:LINGO2 channels [2]; 100 nM Ca2+, -100 to +200 mV): inactivation was practically abolished; also recorded: increased current amplitude and practically abolished inactivation
- Half maximal activation voltage V1/2 after Ch-T (BK:LINGO2 channels [2]; 100 nM Ca2+, Ch-T 2 min, before Ch-T 128 ± 3 mV, n = 7, Boltzmann fit): 86 ± 11 mV
- Inactivation and current amplitude after Ch-T, family of voltages (BK:LINGO2 channels [2]; 10 μM Ca2+, 200 μM Ch-T, -100 to +200 mV): the current amplitude was increased at all voltages recorded, and inactivation was practically abolished
- G/Gmax at -60 mV in Ch-T (BK:LINGO2 channels [2]; 10 μM Ca2+, -60 mV, 200 μM Ch-T, before 0.06 ± 0.02, n = 6, p < 0.05): 0.48 ± 0.27
- Open probability of BK:LINGO2 channels / conductance (BK:LINGO2 channels [2]; Ch-T in 10 μM Ca2+): large increases in G across the voltage range; also recorded: increased the G/Gmax at all voltages; also recorded: significantly increased the open probability of BK:LINGO2 channels
- Steady-state voltage-dependent inactivation after Ch-T (BKα:LINGO2): no time- or voltage-dependent inactivation was observed
- Steady-state voltage-dependent inactivation after Ch-T (BKα:LINGO2; listed as Chloramine-T): compl etel y abol i shed
